# According to patent publication EP0427693A1, “Method for azide displacement of alpha-triflates of 1,5-lactones” (MONSANTO COMPANY, priority 1989, dated 1991):
# How the values were obtained:
# Assay type in all cases: biochemical
# [1] = target: T1, human liver α-mannosidase (Lysosomal) (Homo sapiens, UniProt O00754); test: Human liver glycosidase inhibition, lysosomal α-mannosidase; settings: 1 mM concentration of inhibitor; hydrolysis of 4-umbelliferyl pyrranosides; read-out: % Inhibition α-Mannosidases Lysosomal
# T1 construct: from tissue; host or cells: human liver
# T1 sequence (O00754 50-1011): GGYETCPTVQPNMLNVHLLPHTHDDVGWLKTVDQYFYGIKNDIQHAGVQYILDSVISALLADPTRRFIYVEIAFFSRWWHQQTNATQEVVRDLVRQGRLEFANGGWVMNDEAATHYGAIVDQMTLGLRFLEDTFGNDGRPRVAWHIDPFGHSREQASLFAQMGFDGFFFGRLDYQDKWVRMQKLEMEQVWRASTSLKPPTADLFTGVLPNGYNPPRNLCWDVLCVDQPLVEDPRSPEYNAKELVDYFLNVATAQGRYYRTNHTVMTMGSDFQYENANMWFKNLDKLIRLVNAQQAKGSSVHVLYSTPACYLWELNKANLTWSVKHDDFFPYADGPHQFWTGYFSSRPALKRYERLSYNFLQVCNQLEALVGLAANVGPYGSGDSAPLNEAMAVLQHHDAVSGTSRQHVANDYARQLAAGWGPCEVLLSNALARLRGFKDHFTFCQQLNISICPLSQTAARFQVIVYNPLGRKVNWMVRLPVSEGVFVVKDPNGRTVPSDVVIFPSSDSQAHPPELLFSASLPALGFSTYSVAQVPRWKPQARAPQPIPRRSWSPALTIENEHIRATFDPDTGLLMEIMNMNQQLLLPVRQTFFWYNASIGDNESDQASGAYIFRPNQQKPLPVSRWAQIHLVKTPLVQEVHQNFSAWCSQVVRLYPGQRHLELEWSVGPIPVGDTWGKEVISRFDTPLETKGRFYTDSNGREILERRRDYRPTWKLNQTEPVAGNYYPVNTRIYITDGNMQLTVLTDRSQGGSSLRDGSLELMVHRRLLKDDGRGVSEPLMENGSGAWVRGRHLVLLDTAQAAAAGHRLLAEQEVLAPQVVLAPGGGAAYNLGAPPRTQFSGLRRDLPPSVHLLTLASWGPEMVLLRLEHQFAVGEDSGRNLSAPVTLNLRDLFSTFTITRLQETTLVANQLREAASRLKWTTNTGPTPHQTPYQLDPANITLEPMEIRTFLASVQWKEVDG
# [2] = target: T2, human liver α-mannosidase (Golgi II) (Homo sapiens, UniProt Q16706); test: Human liver glycosidase inhibition, Golgi II α-mannosidase; settings: 1 mM concentration of inhibitor; hydrolysis of 4-umbelliferyl pyrranosides; read-out: % Inhibition α-Mannosidases Golgi II
# T2 construct: from tissue; host or cells: human liver
# T2 sequence (Q16706 1-1144): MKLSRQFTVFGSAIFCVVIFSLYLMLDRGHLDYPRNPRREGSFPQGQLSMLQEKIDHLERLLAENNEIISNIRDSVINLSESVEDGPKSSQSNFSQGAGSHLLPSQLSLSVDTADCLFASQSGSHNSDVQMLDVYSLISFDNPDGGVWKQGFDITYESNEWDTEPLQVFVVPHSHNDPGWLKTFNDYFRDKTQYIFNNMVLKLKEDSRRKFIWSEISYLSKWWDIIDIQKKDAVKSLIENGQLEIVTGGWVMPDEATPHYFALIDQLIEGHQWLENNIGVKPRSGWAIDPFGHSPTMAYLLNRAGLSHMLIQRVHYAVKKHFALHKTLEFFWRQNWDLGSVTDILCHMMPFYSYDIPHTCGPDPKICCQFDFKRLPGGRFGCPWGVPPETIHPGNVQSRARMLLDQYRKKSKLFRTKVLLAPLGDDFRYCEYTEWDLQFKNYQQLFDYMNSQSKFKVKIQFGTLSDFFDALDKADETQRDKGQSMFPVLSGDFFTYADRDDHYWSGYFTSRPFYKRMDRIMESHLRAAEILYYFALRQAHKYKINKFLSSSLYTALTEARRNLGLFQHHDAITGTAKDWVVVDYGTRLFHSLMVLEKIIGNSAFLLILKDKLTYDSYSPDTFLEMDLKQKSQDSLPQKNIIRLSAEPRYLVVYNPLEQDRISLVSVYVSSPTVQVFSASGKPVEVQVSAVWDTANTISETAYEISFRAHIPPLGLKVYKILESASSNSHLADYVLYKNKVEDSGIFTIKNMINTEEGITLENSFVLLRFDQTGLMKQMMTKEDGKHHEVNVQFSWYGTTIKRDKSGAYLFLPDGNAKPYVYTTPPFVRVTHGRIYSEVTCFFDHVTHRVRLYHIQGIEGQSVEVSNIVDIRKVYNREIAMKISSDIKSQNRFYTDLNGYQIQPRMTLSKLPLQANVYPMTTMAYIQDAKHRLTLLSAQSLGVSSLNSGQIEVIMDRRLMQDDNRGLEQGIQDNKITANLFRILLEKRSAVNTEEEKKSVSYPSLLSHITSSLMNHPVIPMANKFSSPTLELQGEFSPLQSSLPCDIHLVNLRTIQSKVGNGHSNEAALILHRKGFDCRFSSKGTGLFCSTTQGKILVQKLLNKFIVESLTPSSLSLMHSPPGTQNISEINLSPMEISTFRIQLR
# [3] = target: T3, human liver α-mannosidase (Neutral) (Homo sapiens, UniProt Q9NTJ4); test: Human liver glycosidase inhibition, neutral α-mannosidase; settings: 1 mM concentration of inhibitor; hydrolysis of 4-umbelliferyl pyrranosides; read-out: % Inhibition α-Mannosidases Neutral
# T3 construct: from tissue; host or cells: human liver
# T3 sequence (Q9NTJ4 1-1040): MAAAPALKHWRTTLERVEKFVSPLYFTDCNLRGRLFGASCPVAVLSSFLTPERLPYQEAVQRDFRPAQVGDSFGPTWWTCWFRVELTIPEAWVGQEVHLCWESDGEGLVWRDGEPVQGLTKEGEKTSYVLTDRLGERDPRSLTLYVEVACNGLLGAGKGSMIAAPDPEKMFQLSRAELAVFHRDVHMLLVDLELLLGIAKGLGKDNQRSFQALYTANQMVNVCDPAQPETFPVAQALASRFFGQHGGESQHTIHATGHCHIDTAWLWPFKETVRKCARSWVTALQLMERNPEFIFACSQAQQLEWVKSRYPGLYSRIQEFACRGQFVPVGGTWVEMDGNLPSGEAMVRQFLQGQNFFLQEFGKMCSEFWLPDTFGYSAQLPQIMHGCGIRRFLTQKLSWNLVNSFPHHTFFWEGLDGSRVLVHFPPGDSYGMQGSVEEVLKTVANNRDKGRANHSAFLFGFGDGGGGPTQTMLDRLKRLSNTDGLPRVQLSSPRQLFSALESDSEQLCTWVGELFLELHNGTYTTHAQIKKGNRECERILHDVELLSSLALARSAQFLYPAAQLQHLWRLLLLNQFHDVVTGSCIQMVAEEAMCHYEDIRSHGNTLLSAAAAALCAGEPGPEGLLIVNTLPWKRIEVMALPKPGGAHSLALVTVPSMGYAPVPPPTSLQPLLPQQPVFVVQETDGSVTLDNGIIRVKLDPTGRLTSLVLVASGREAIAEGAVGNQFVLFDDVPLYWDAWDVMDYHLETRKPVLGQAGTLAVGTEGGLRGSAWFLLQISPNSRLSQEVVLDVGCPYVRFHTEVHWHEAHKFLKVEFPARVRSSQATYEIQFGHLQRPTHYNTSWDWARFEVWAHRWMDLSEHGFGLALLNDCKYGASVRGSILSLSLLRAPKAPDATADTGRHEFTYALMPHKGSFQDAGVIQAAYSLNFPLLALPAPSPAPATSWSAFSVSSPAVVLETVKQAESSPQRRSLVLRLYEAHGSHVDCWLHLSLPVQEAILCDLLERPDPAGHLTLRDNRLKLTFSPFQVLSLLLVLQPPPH
# human liver α-fucosidase = target: T4, human liver α-fucosidase (Homo sapiens, UniProt P04066); test: Human liver glycosidase inhibition, α-fucosidase; settings: for inhibition at 1000 µM: 1 mM concentration of inhibitor, hydrolysis of 4-umbelliferyl pyrranosides; for inhibition of α-fucosidase (in words): human liver glycosidases
# T4 construct: from tissue; host or cells: human liver
# T4 sequence (P04066 32-466): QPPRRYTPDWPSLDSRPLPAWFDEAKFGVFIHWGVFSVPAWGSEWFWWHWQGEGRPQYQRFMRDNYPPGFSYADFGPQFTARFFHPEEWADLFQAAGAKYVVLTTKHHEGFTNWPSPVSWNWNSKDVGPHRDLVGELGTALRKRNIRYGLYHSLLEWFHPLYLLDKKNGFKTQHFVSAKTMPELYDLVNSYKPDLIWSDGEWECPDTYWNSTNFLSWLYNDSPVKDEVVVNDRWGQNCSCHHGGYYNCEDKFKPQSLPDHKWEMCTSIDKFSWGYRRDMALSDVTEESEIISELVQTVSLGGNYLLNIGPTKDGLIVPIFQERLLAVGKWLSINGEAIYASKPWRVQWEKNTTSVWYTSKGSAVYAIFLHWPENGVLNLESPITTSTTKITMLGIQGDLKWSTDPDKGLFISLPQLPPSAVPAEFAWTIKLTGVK
# human α-mannosidases = test: Human liver glycosidase inhibition, α-mannosidases; settings: human liver glycosidases
inhibition at 1000 µM [1],inhibition at 1000 µM [2],inhibition at 1000 µM [3],inhibition at 1000 µM (human liver α-fucosidase),inhibition of α-fucosidase (in words) (human liver α-fucosidase),inhibition of α-mannosidases (in words) (human α-mannosidases),SMILES
0%,0%,0%,96%,powerful inhibitors,did not inhibit any α-mannosidase,"OC[C@@H]1N[C@H](CO)[C@@H](O)[C@@H](O)[C@@H]1O [6-Epi-homomannojirimycin, 2,6-dideoxy-2,6-imino-L-glycero-D-talo-heptitol]"
49%,56%,30%,29%,only a weak inhibitor,,"OC[C@H]1N[C@H](CO)[C@@H](O)C(O)[C@@H]1O (stereo partly drawn) [Homomannojirimycin, 2,6-dideoxy-2,6-imino-D-glycero-D-talo-heptitol]"

SMILES,inhibition at 1000 µM [1],inhibition at 1000 µM [2],inhibition at 1000 µM [3],inhibition at 1000 µM (human liver α-fucosidase),inhibition of α-fucosidase (in words) (human liver α-fucosidase),inhibition of α-mannosidases (in words) (human α-mannosidases)
"OC[C@H]1NC[C@@H](O)[C@@H](O)[C@@H]1O [Deoxymannojirimycin, reference compound]",58%,45%,21%,91%,powerful inhibitors,
